Reference: patent publication US4844895A, “Composition containing a peptide fragment of platelet factor four and method for restoring suppressed immune responses” (New York University, priority 1987, dated 1989)
No end group written: not given here.

Legend:
monocytes = settings: Osterman et al, Biochem. Biophys. Res. Comm. 107:130-135, 1982; cited from earlier work
[1] = test system: Con A-induced suppression; assay: Reversal of Con A-induced suppression of the splenic plaque-forming cell (PFC) response to SRBC in mice; format: in vivo; settings: for Reversal of Con A-induced suppression (result in words): mice, PFC response to SRBC; for Activity / effective amount on a molar basis relative to the PF4 holoprotein: restoring suppressed immune responses in mice
Experimental: Concanavalin A (Miles--Yeda Ltd., Research Products, Israel) was reconstituted with saline and kept frozen. Dilutions from the frozen stock were stored at 4° C. and injected i.v. into mice one day prior to antigen, sheep erythrocytes (SRBC). SRBC were obtained from Colorado Serum Company (Denver, Colorado) washed, counted and injected intraperitoneally (i.p.) in mice. Human serum or platelet releasate was administered i.v. one to two hours before Con A i.v.
The spleens of the mice were assayed for plaque-forming cells (PFC) on day 5 after injection of sheep red blood cells. The assay employed was as follows: single-cell suspensions were prepared from individual spleens of mice. The cells were suspended in Hanks' Balanced Salt Solution (Gibco Laboratories, Grand Island, New York) and washed. Direct PFC were enumerated using the well-known method of Jerne, N.K. et al (in Cell-Bound Antibody, Amos, E. and Koprowsky, H. eds., Wistar Institute Press. pp. 109-111, […]) with the slide modification of Mishell, R.I. and Dutton, R.W. (J. Exp. Med. 126:423, 1967), both incorporated by reference. […]
When treated with thrombin or A23187 (Calcium ionophore), platelets also release alpha granule constituents other than PF4. In particular, they release LA-PF4 and PDGF. The inventors tested the ability of LA-PF4 and PDGF to overcome suppression induced by 5 μg Con A. […]
Mice were injected with 10 micrograms of Con A i.v. on day -1 (except in the positive control, which received no Con A) and on day 0 with 2.5×10^6 SRBC per mouse as in Example 2 above. On day -1, the mice also received either: Nothing (100% control), Con A only, platelet releasate (equivalent to the amount of PF4 holoprotein contained in the platelet releasate from 2×10^7 platelets or about 0.12 microgram/mouse) and various concentrations of the above-mentioned synthetic C-terminal peptide of human PF4.

[2] = test system: spleen, lymph node and thymus cells; assay: Absorption of immunoregulatory activity by cells from lymphoid organs, read out as reversal of Con A-induced suppression (PFC/spleen); format: in vivo, CB6F1 mouse
Experimental: The spleens of the mice were assayed for plaque-forming cells (PFC) on day 5 after injection of sheep red blood cells. The assay employed was as follows: single-cell suspensions were prepared from individual spleens of mice. The cells were suspended in Hanks' Balanced Salt Solution (Gibco Laboratories, Grand Island, New York) and washed. Direct PFC were enumerated using the well-known method of Jerne, N.K. et al (in Cell-Bound Antibody, Amos, E. and Koprowsky, H. eds., Wistar Institute Press. pp. 109-111, […]) with the slide modification of Mishell, R.I. and Dutton, R.W. (J. Exp. Med. 126:423, 1967), both incorporated by reference.
In order to confirm and expand this finding, 1 ml o serum, diluted 1:2, was absorbed twice for thirty minutes at 4° C. using half the number of cells for each absorption as are listed for spleen (Sp1), lymphnode (LN) and thymus (Thy) in Table 3. Each CB6F1 mouse received 0.2 ml of a 1:4 dilution of absorbed or unabsorbed serum i.v. one to two hours before administration of 2×10^6 SRBC i.v. Plaque-forming cell response was measured as in Example 2.
The experiments were performed exactly as described for the PF4 holoprotein in Example 4 above, except that 0.5 (Expt. 1) or 2.5 micrograms (Expt. 2) of the PF4 tridecapeptide was administered.

[3] = 10 micrograms Con A, 0.7-1 μg Tridecapeptide
[4] = 10 micrograms Con A, 2.5-7 μg Tridecapeptide
[5] = 10 micrograms Con A, 2.5-7 μg Tridecapeptide on day -1, n 5-10

For “Pro-Leu-Tyr-Lys-Lys-Ile-Ile-Lys-Lys-Leu-Leu-Glu-Ser-COOH (PLYKKIIKKLLES-OH) [Tridecapeptide, carboxy-terminal 13 amino acid residues of human PF4]”, the “Chemotactic activity for monocytes (result in words)” value (monocytes) is listed as “potent chemotactic agent”, the “Reversal of immunosuppression induced by Con A (result in words)” value ([1]; 0.7-7 micrograms administered to mice) is listed as “active in reversing the immunosuppression induced by Con A” and the “Expt.1 % (of 100% control)” value ([1]; 10 micrograms Con A, 0.007 μg Tridecapeptide) is listed as 52%. For the same substance, the “Geom. Mean PFC/Spleen (SE), Expt.1 PFC” value ([1]; 10 micrograms Con A, 0.007 μg Tridecapeptide on day -1, n 5-10) was 5,700(1.4) PFC/Spleen, the “Expt.1 % (of 100% control)” value ([1]; 10 micrograms Con A, 0.07 μg Tridecapeptide) was 37% and the “Geom. Mean PFC/Spleen (SE), Expt.1 PFC” value ([1]; 10 micrograms Con A, 0.07 μg Tridecapeptide on day -1, n 5-10) was 4,000(1.4) PFC/Spleen. The “Expt.1 % (of 100% control)” value [1, 3] was 95%, the “Expt.2 % (of 100% control)” value [1, 3] was 226% and the “Geom. Mean PFC/Spleen (SE), Expt.1 PFC” value ([1]; 10 micrograms Con A, 0.7-1 μg Tridecapeptide on day -1, n 5-10) was 10,400(1.1) PFC/Spleen. The “Expt.1 % (of 100% control)” value [1, 4] was 99%, the “Expt.3 % (of 100% control)” value [1, 4] was 270% and the “Geom. Mean PFC/Spleen (SE), Expt.1 PFC” value [1, 5] was 10,900(1.2) PFC/Spleen. For the same substance, the “Geom. Mean PFC/Spleen (SE), Expt.3 PFC” value [1, 5] was 38,800(1,1) PFC/Spleen, the “Reversal of Con A-induced suppression (result in words)” value [1] was “able to overcome Con A-induced suppression in a dose-dependent fashion” and the “Activity / effective amount on a molar basis relative to the PF4 holoprotein” value [1] was “less than that of the holoprotein”. For the same substance, the “Activity / effective amount on a molar basis relative to the PF4 holoprotein” value ([1]; listed as PF4 tridecapeptide) was “About three times more”, the “Geom mean PFC/Spleen, Expt. 1 Geom. Mean” value ([2]; SRBC + Con A, 0.5 μg/mouse tridecapeptide, unabsorbed or absorbed with cells) was 23,488 PFC/Spleen and the “Geom mean PFC/Spleen, Expt. 2 Geom. Mean” value ([2]; SRBC + Con A, 2.5 μg/mouse tridecapeptide, unabsorbed or absorbed with cells) was 38,790 PFC/Spleen. The “Absorption of the immunoregulatory activity by cells (result in words)” value ([2]; normal mouse spleen cells) was “spleen cells can absorb”.

With “PDGF: platelet-derived growth factor, platelet alpha-granule constituent [reference compound]” the “Geom. Mean of PFC/Spleen On Day 5, Expt. 1” value ([1]; 5 μg Con A, antilog of standard error ≤ 1.1, n = 4, PDGF 0.003 μg per mouse) was 8,370 PFC/Spleen, the “Immunomodulatory activity against suppression induced by 5 μg Con A (result in words)” value ([1]; concentrations well below those in serum: PDGF 0.003 μg, LA-PF4 0.6 μg, purified PF4 0.2 to 0.6 μg per mouse) was “little or not activity” and the “Reversal of Con A-induced suppression (result in words)” value [1] was “no significant immunomodulating activity”.
